Source: patent publication US20210284618A1, “FURANOCHALCONES AS INHIBITORS OF CYP1A1, CYP1A2 AND CYP1B1 FOR CANCER CHEMOPREVENTION” (Council of Scientific & Industrial Research, priority 2016, published 2021)
Values joined by “and” are separate entries in the source; they are usually repeats but may differ in a detail not shown here. Equal entries are not always repeated.

Columns and labels:
CYP2C8 = target: T1, CYP2C8 (Homo sapiens, UniProt P10632); test: CYP2C8 inhibition in Saccharosomes; type: biochemical; conditions: Saccharosomes containing CYP2C8
T1 construct: host or cells: yeast microsomes (Saccharosomes)
T1 sequence (P10632 1-490): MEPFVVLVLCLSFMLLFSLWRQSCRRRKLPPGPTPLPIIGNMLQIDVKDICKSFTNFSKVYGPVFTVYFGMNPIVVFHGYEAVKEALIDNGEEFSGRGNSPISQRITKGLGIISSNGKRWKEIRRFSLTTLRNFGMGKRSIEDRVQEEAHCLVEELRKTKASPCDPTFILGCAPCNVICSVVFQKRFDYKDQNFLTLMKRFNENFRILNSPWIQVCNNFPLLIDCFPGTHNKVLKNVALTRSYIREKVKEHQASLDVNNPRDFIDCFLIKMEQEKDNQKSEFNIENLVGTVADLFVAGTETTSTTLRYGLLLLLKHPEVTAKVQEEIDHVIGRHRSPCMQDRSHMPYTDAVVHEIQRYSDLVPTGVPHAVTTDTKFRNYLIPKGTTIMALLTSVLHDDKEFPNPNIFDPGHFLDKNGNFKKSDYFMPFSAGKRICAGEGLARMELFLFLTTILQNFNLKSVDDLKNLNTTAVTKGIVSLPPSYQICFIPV

CYP1A2 = target: T2, CYP1A2 (Homo sapiens, UniProt P05177); test: CYP1A2 inhibition in Saccharosomes; type: biochemical
T2 construct: host or cells: yeast microsomes (Saccharosomes)
T2 sequence (P05177 1-516): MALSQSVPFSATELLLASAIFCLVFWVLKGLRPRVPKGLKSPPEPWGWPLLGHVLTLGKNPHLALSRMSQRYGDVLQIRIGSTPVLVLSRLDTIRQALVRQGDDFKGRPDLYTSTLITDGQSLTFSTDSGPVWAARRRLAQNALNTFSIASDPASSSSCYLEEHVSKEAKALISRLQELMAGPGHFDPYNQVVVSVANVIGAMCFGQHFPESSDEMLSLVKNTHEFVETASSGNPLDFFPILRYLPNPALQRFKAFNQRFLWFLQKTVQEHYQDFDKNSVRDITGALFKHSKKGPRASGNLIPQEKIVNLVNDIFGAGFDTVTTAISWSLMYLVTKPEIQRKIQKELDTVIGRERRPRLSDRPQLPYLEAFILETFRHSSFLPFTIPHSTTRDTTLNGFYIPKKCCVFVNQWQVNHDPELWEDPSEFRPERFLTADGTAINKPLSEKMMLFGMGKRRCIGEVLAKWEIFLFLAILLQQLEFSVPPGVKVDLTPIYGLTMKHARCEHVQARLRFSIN
Procedure: (§1) Example 25. IC50 determination for best compound against CYP1A1, CYP1B1 and other CYPs in Saccharosomes. Compounds were serially diluted to six different concentrations with 10% DMSO in a Sero-Well white microplate. The experiment was performed in a similar way as described above in examples 23 and 24.

CYP1A1 [1] = target: T3, CYP1A1 (Homo sapiens, UniProt P04798); test: In-vitro CYP450 1A1 enzyme inhibition in Saccharosomes; type: biochemical
T3 construct: host or cells: yeast microsomes (Saccharosomes)
T3 sequence (P04798 1-512): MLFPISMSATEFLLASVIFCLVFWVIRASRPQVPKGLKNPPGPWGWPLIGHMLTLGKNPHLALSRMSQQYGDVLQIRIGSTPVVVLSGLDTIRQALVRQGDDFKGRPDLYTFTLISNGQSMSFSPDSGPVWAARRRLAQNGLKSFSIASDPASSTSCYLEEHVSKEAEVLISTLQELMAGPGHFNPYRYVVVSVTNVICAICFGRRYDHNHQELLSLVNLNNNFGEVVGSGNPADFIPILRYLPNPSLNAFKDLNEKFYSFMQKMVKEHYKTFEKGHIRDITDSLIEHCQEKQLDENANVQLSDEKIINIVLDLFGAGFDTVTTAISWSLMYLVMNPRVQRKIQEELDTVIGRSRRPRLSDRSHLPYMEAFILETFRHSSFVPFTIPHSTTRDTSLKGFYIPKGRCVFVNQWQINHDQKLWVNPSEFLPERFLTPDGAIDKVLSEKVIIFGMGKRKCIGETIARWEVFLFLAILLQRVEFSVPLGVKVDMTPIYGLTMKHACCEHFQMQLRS
Procedure: Example 23. In-vitro CYP450 1A1 enzyme inhibition in Saccharosomes™: The screening method utilizes 384-well microplates to rapidly ascertain relative percentage inhibition of CYP1A1 by a library of compounds. Each reaction was performed in black, clear-bottomed 384-well microplates. A reaction volume of 50 μl comprised of 0.5 pmol of the cytochrome P450 CYP1A1 (Saccharosomes), 5 μM of ethoxyresorufin substrate (which contributes 0.05% DMSO to the well), 10 μM of potential inhibitor test article (which contributes 0.5% DMSO to the well), A P450 reductase NADPH regenerating system (1.3 mM NADP+, 3.3 mM glucose-6-0.02 units phosphate and glucose-6-Phosphate dehydrogenase), potassium phosphate buffer (final well concentration 100 mM, pH 7.4) and water. Very small quantities of magnesium chloride and sodium citrate are added to the NADPH regenerating system, in line with standard published protocols. The potential inhibitor (test article) was pre-incubated with CYP1A1 of at least 20 minutes at 30° C. After this period, the remainder of the reagents required in the assay was added to initiate the process. The reaction mixture was incubated for another 20 minutes at 30° C. The reaction was stopped by adding an 80% acetonitrile, 20% 0.5 M Tris solution. The reactions were monitored using the Biotek Synergy HT plate reader by measuring the endpoint reaction at Excitation 530/(25 bandwidth) & Emission 590/(20 bandwidth) using a gain/sensitivity setting of 60. The mean of the quadruplicates of the negative control (solvent inactivated CYP1A1) was deducted from the mean of potential inhibitor (test article) samples. The percentage was then derived relative to the mean of the wells without inhibitor.
as §1

CYP2D6 = target: T4, CYP2D6 (Homo sapiens, UniProt P10635); test: CYP2D6 inhibition in Saccharosomes; type: biochemical
T4 construct: host or cells: yeast microsomes (Saccharosomes)
T4 sequence (P10635 whole entry): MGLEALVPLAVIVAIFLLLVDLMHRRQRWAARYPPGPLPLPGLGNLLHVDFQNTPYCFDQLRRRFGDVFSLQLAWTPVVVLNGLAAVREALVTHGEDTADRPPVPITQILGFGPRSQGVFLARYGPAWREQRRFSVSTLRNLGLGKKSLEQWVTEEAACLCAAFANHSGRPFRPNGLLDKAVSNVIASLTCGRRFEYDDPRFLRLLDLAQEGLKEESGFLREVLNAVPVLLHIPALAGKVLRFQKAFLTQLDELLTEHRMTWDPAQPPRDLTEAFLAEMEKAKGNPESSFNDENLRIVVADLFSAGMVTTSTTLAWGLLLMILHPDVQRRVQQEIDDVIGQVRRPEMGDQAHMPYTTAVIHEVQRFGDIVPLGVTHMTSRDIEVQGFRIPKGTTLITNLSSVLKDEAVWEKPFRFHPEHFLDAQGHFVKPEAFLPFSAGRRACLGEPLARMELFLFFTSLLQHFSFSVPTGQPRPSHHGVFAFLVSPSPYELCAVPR
Procedure: as §1

CYP2E1 = target: T5, CYP2E1 (Homo sapiens, UniProt P05181); test: CYP2E1 inhibition in Saccharosomes; type: biochemical
T5 construct: host or cells: yeast microsomes (Saccharosomes)
T5 sequence (P05181 whole entry): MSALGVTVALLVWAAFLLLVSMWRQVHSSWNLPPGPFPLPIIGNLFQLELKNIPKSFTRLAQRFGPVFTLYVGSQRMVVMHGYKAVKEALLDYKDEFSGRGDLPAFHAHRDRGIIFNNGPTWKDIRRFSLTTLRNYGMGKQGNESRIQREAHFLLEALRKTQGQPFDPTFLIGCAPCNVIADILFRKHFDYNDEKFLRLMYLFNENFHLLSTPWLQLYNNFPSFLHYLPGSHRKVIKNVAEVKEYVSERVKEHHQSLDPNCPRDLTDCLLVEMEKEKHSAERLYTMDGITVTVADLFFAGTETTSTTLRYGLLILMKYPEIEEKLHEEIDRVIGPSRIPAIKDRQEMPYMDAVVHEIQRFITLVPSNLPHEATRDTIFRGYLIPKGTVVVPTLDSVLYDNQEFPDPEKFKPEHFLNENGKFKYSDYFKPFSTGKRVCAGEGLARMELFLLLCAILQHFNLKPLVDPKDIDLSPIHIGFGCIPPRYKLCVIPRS
Procedure: as §1

CYP1A1 [2] = target: T3, CYP1A1; test: CYP1A1 inhibition in HEK293 cells transfected with pcDNA3.1/CYP1A1 (live cells); type: cell-based
Procedure: Example 26. In-vitro CYP450 inhibition in HEK293 cells transfected with pcDNA3.1/CYP1A1 against 5 μM EROD. […] The HEK293 cells used here was procured from ‘European Collection of Authenticated Cell Cultures’ (catalog number. ECACC 85120602).

## COc1c(C(=O)/C=C/c2cccnc2)c(O)c(OC)c2occc12 [Compound 8, 3-(4,7-dimethoxy-6-hydroxybenzofuran-5-yl)-1-(pyridin-3-yl)-3-oxopropene]
CYP2C8
  inhibition at 20 µM: 24%
CYP1A2
  IC50: 166 nM
CYP1A1 [1]
  IC50: 342 nM
CYP1A1 [1]; 10 μM test compound, 5 μM ethoxyresorufin
  % inhibition of CYP1A1 in Saccharosomes at 10 μM: 97% and 97.2%
CYP1A1 [1]; human, Saccharosomes containing CYP1A1, pH 7.4, probe ethoxyresorufin (5 μM), % inhibition of CYP1A1 in Saccharosomes at 10 μM, 10 μM test compound, 5 μM ethoxyresorufin
  inhibition at 20 min, 10 μM: > 80%
CYP2D6
  IC50: 7000 nM
CYP2D6; human, Saccharosomes containing CYP2D6, 20 μM
  inhibition at 20 µM: 84%
CYP2E1
  Inhibition of CYP2E1 at 10 μM: No Inhibition
CYP1A1 [2]
  IC50: 470 nM
CYP1A1 [2]; 10 μM, 5 μM EROD
  % inhibition of CYP1A1 in HEK293 cells at 10 μM: 99.2%
CYP1A1 [2]; human, HEK293 cells transfected with pcDNA3.1/CYP1A1 (live cells), probe EROD (5 μM), % inhibition of CYP1A1 in HEK293 cells at 10 μM, 10 μM, 5 μM EROD
  inhibition at 10 μM: > 80%
